Source: patent publication US20170253607A1, “LONG-ACTING HIV PROTEASE INHIBITOR” (Shionogi & Co., Ltd., priority 2014, published 2017)
pIC50: −log10 of the molar value.

The molecules below were run against HIV-1 PR (Human immunodeficiency virus type 1 group M subtype B, UniProt P04585) (assay: HIV-protease inhibitory activity assay (FRET peptide substrate)). Conditions: Test Example 1.
Format: biochemical
Summary of the method: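 HIV-1 PR (0.83 ng) preincubated with compounds 20 min at room temperature in 0.1 mol/L NaAc, 0.5 mol/L NaCl, 1 mmol/L EDTA, 1 mmol/L DTT, 0.05% Tween 20, pH 4.8. Cleavage of HiLyte Fluor 488/QXL 520 FRET peptide (2 μmol/L) read after 60 minutes at 485/535 nm; IC50 from four-parameter logistic fit.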

With `COc1ccc(S(=O)(=O)N(CC(C)C)CC(O)C(Cc2ccc(NCc3ccc(Oc4ccccc4)cc3-c3sc4c(c3C(=O)O)CC(C)(C)CC4)cc2)NC(=O)OC2COC3(C)OCCC23)cc1` (stereo not drawn) [Compound I-695] as the molecule, how does the pIC50 read?
The pIC50 was 8.39.

With `COc1ccc(S(=O)(=O)N(CC(C)C)CC(O)C(Cc2ccc(N3CCc4c(cccc4-c4sc5c(c4C(=O)O)CC(C)(C)CC5)C3)cc2)NC(=O)OC2COC3(C)OCCC23)cc1` (stereo not drawn) [Compound I-226] as the molecule, how does the pIC50 read?
The pIC50 was 8.35.

With `COc1ccc(S(=O)(=O)N(CC(C)C)CC(O)C(Cc2ccc(OC3CCN(c4ncccc4-c4sc5c(c4C(=O)O)CC(C)(C)CC5)C3)cc2)NC(=O)OC2COC3(C)OCCC23)cc1` (stereo not drawn) [Compound I-355] as the molecule, how does the pIC50 read?
Its pIC50 is 8.63.

`COc1ccc(S(=O)(=O)N(CC(C)C)CC(O)C(Cc2ccc(NCCCc3sc4c(c3C(=O)O)CC(C)(C)CC4)cc2)NC(=O)OC2COC3(C)OCCC23)cc1` (stereo not drawn) [Compound I-335] was tested. Which pIC50 did it give?
Its pIC50 is 8.74.

`COc1ccc(S(=O)(=O)N(CC(C)C)CC(O)C(Cc2ccc(COC3CCCN3c3ccccc3-c3sc4c(c3C(=O)O)CC(C)(C)CC4)cc2)NC(=O)OC2COC3(C)OCCC23)cc1` (stereo not drawn) [Compound I-103] was tested. Which pIC50 did it give?
Its pIC50 is 8.43.

How did the pIC50 turn out when `COc1ccc(S(=O)(=O)N(CC(C)C)CC(O)C(Cc2ccc(N(C)Cc3sc4c(c3C(=O)O)CC(C)(C)CC4)cc2)NC(=O)OC2COC3(C)OCCC23)cc1` (stereo not drawn) [Compound I-46] was run?
The pIC50 was 8.73.

With `COc1ccc(S(=O)(=O)N(CC(C)C)CC(O)C(Cc2ccc(NCc3ccccc3-c3c(C(=O)O)[nH]c4cc(Cl)cc(Cl)c34)cc2)NC(=O)OC2COC3(C)OCCC23)cc1` (stereo not drawn) [Compound I-633] as the molecule, how does the pIC50 read?
The pIC50 was 8.61.

With `COc1ccc(S(=O)(=O)N(CC(C)C)CC(O)C(Cc2ccc(NCC3CC(C)(C)CCC3c3sc4c(c3C(=O)O)CC(C)(C)CC4)cc2)NC(=O)OC2COC3(C)OCCC23)cc1` (stereo not drawn) [Compound I-765] as the molecule, how does the pIC50 read?
Its pIC50 is 8.53.

With `COc1ccc(S(=O)(=O)N(CC(C)C)CC(O)C(Cc2ccc(OCc3ccccc3-c3ccc4c(c3)C(=O)C(c3ccc(F)cc3)C4=O)cc2)NC(=O)OC2COC3(C)OCCC23)cc1` (stereo not drawn) [Compound I-70] as the molecule, how does the pIC50 read?
The pIC50 was 8.97.

With `COc1ccc(S(=O)(=O)N(CC(C)C)CC(O)C(Cc2ccc(NCc3cnc(-c4sc5c(c4C(=O)O)CC(C)(C)CC5)c(C)c3)cc2)NC(=O)OC2COC3(C)OCCC23)cc1` (stereo not drawn) [Compound I-559] as the molecule, how does the pIC50 read?
The pIC50 was 8.73.

`CC(C)CN(C[C@@H](O)[C@H](Cc1ccc(OCc2ccccc2-c2sc3c(c2C(=O)O)CC(C)(C)CC3)cc1)NC(=O)O[C@H]1CO[C@@]2(C)OCC[C@@H]12)S(=O)(=O)c1ccc(N)c(/C=C/C(N)=O)c1` [Compound I-16] was tested. Which pIC50 did it give?
The pIC50 was 8.65.

How did the pIC50 turn out when `COc1ccc(S(=O)(=O)N(CC(C)C)CC(O)C(Cc2ccc(NCc3ccc(C(=O)Nc4sc5c(c4C(=O)O)CC(C)(C)CC5)cc3)cc2)NC(=O)OC2COC3(C)OCCC23)cc1` (stereo not drawn) [Compound I-437] was run?
The pIC50 was 8.35.

How did the pIC50 turn out when `COc1ccc(S(=O)(=O)N(CC(C)C)CC(O)C(Cc2ccc(N3CC(Oc4ccc(-c5sc6c(c5C(=O)O)CC(C)(C)CC6)cc4)C3)cc2)NC(=O)OC2COC3(C)OCCC23)cc1` (stereo not drawn) [Compound I-370] was run?
The pIC50 was 8.30.

How did the pIC50 turn out when `COc1ccc(S(=O)(=O)N(CC(C)C)CC(O)C(Cc2ccc(OCc3ccnc(C(=O)O)c3)cc2)NC(=O)OC2COC3(C)OCCC23)cc1` (stereo not drawn) [Compound I-306] was run?
Its pIC50 is 8.72.

`COc1ccc(S(=O)(=O)N(CC(C)C)CC(O)C(Cc2ccc(NCc3ccc(Oc4ccc(-c5sc6c(c5C(=O)O)CC(C)(C)CC6)cc4)cc3)cc2)NC(=O)OC2COC3(C)OCCC23)cc1` (stereo not drawn) [Compound I-564] was tested. Which pIC50 did it give?
Its pIC50 is 7.85.

`COc1ccc(S(=O)(=O)N(CC(C)C)CC(O)C(Cc2ccc(N3CCc4nc(-c5sc6c(c5C(=O)O)CC(C)(C)CC6)sc4C3)cc2)NC(=O)OC2COC3(C)OCCC23)cc1` (stereo not drawn) [Compound I-225] was tested. Which pIC50 did it give?
Its pIC50 is 8.64.

`COc1ccc(S(=O)(=O)N(CC(C)C)CC(O)C(Cc2ccc(NCc3ccc(Cl)cc3C(=O)Nc3sc4c(c3C(=O)O)CC(C)(C)CC4)cc2)NC(=O)OC2COC3(C)OCCC23)cc1` (stereo not drawn) [Compound I-657] was tested. Which pIC50 did it give?
Its pIC50 is 8.09.

How did the pIC50 turn out when `COc1ccc(S(=O)(=O)N(CC(C)C)CC(O)C(Cc2ccc(C(=O)NCc3ccccc3-c3sc4c(c3C(=O)O)CC(C)(C)CC4)cc2)NC(=O)OC2COC3(C)OCCC23)cc1` (stereo not drawn) [Compound I-263] was run?
Its pIC50 is 8.47.

With `COc1ccc(S(=O)(=O)N(CC(C)C)CC(O)C(Cc2ccc(OCC3CCCN(c4ccc(C#N)cc4-c4sc5c(c4C(=O)O)CC(C)(C)CC5)C3)cc2)NC(=O)OC2COC3(C)OCCC23)cc1` (stereo not drawn) [Compound I-327] as the molecule, how does the pIC50 read?
The pIC50 was 7.98.

With `COc1ccc(S(=O)(=O)N(CC(C)C)CC(O)C(Cc2ccc(OCc3cccc(-c4ccc(F)cc4F)c3C(=O)O)cc2)NC(=O)OC2COC3(C)OCCC23)cc1` (stereo not drawn) [Compound I-153] as the molecule, how does the pIC50 read?
The pIC50 was 8.97.

`COc1ccc(S(=O)(=O)N(CC(C)C)CC(O)C(Cc2ccc(N(C)Cc3cocc3-c3sc4c(c3C(=O)O)CC(C)(C)CC4)cc2)NC(=O)OC2COC3(C)OCCC23)cc1` (stereo not drawn) [Compound I-570] was tested. Which pIC50 did it give?
Its pIC50 is 8.73.

How did the pIC50 turn out when `COc1ccc(S(=O)(=O)N(CC(C)C)CC(O)C(Cc2ccc(NCc3ccc(-c4sc5c(c4C(=O)O)CC(C)(C)CC5)nc3)cc2)NC(=O)OC2COC3(C)OCCC23)cc1` (stereo not drawn) [Compound I-551] was run?
Its pIC50 is 8.87.

How did the pIC50 turn out when `COc1ccc(S(=O)(=O)N(CC(C)C)CC(O)C(Cc2ccc(N(Cc3ccccc3-c3sc4c(c3C(=O)O)CC(C)(C)CC4)CC3CCCCC3)cc2)NC(=O)OC2COC3(C)OCCC23)cc1` (stereo not drawn) [Compound I-42] was run?
The pIC50 was 7.63.

`COc1ccc(S(=O)(=O)N(CC(C)C)CC(O)C(Cc2ccc(NCc3cc(Cl)ccc3-c3sc4c(c3C(=O)O)CC(C)(C)CC4)cc2)NC(=O)OC2COC3(C)OCCC23)cc1` (stereo not drawn) [Compound I-547] was tested. Which pIC50 did it give?
Its pIC50 is 8.64.

With `COc1ccc(S(=O)(=O)N(CC(C)C)CC(O)C(Cc2ccc(OCc3ccc(C(=O)O)c(-c4ccc(F)cc4F)c3)cc2)NC(=O)OC2COC3(C)OCCC23)cc1` (stereo not drawn) [Compound I-149] as the molecule, how does the pIC50 read?
The pIC50 was 8.90.

With `CCCCCCCCCCCCCC(=O)Nc1ccc(CN(C)c2ccc(C[C@H](NC(=O)OC3CO[C@@]4(C)OCC[C@@H]34)[C@H](O)CN(CC(C)C)S(=O)(=O)c3ccc(OC)cc3)cc2)c(-c2sc3c(c2C(=O)O)CC(C)(C)CC3)c1` (stereo partly drawn) [Compound I-910] as the molecule, how does the pIC50 read?
The pIC50 was 8.11.

How did the pIC50 turn out when `COc1ccc(S(=O)(=O)N(CC(C)C)CC(O)C(Cc2ccc(CN(C)Cc3ccccc3-c3sc4c(c3C(=O)O)CC(C)(C)CC4)cc2)NC(=O)OC2COC3(C)OCCC23)cc1` (stereo not drawn) [Compound I-250] was run?
Its pIC50 is 8.66.

How did the pIC50 turn out when `COc1ccc(S(=O)(=O)N(CC2CCCC2)CC(O)C(Cc2ccc(OC3CCN(C(=O)c4ccc(Cl)cc4-c4sc5c(c4C(=O)O)CC(C)(C)CC5)C3)cc2)NC(=O)OC2COC3(C)OCCC23)cc1` (stereo not drawn) [Compound I-210] was run?
The pIC50 was 8.67.

How did the pIC50 turn out when `COc1ccc(S(=O)(=O)N(CC(C)C)CC(O)C(Cc2ccc(NCc3ccccc3-c3ccc4[nH]c(C(=O)O)cc4c3)cc2)NC(=O)OC2COC3(C)OCCC23)cc1` (stereo not drawn) [Compound I-897] was run?
The pIC50 was 8.61.

How did the pIC50 turn out when `COc1ccc(S(=O)(=O)N(CC(C)C)CC(O)C(Cc2ccc(OCCNC(=O)c3cc(Cl)ccc3O)cc2)NC(=O)OC2COC3(C)OCCC23)cc1` (stereo not drawn) [Compound I-170] was run?
Its pIC50 is 9.04.
